Reference: the supplement of paper PMC10307832

Key:
Test in all cases: relative viability (nuclei count vs DMSO), 5 days (fraction); higher = more cells survive
Etoposide + Alpelisib = compound: COc1cc([C@@H]2c3cc4c(cc3[C@@H](O[C@@H]3O[C@@H]5CO[C@@H](C)O[C@H]5[C@H](O)[C@H]3O)[C@H]3COC(=O)[C@H]23)OCO4)cc(OC)c1O [Etoposide] + Cc1nc(NC(=O)N2CCC[C@H]2C(N)=O)sc1-c1ccnc(C(C)(C)C(F)(F)F)c1 [Alpelisib] (partner 2 µM)
Method in brief: (§1)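 Values are medians from duplicate plates. Each reflects relative viability, defined as the nuclei count of treated wells over that of vehicle wells. Lung cancer cell lines in 1536-well plates were pin-tool dosed one day after seeding with one drug alone or with a fixed anchor-drug dose plus five library-drug doses (not always all listed) in √10 steps, then fixed, stained and imaged at 4× after 5 days.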

Etoposide + Decitabine = compound: COc1cc([C@@H]2c3cc4c(cc3[C@@H](O[C@@H]3O[C@@H]5CO[C@@H](C)O[C@H]5[C@H](O)[C@H]3O)[C@H]3COC(=O)[C@H]23)OCO4)cc(OC)c1O [Etoposide] + Nc1ncn([C@H]2C[C@H](O)[C@@H](CO)O2)c(=O)n1 [Decitabine] (partner 2 µM)
Method in brief: as §1

Etoposide + Luminespib = compound: COc1cc([C@@H]2c3cc4c(cc3[C@@H](O[C@@H]3O[C@@H]5CO[C@@H](C)O[C@H]5[C@H](O)[C@H]3O)[C@H]3COC(=O)[C@H]23)OCO4)cc(OC)c1O [Etoposide] + CCNC(=O)c1noc(-c2cc(C(C)C)c(O)cc2O)c1-c1ccc(CN2CCOCC2)cc1 [Luminespib] (partner 0.01 µM)
Method in brief: as §1

Bleomycin + Dasatinib = compound: CC1=C(N=C(N=C1N)[C@H](CC(=O)N)NC[C@@H](C(=O)N)N)C(=O)N[C@@H]([C@H](C2=CN=CN2)OC3C(C(C(C(O3)CO)O)O)OC4C(C(C(C(O4)CO)O)OC(=O)N)O)C(=O)N[C@H](C)[C@H]([C@H](C)C(=O)N[C@@H]([C@@H](C)O)C(=O)NCCC5=NC(=CS5)C6=NC(=CS6)C(=O)NCCC[S+](C)C)O [Bleomycin] + Cc1nc(Nc2ncc(C(=O)Nc3c(C)cccc3Cl)s2)cc(N2CCN(CCO)CC2)n1 [Dasatinib] (partner 0.075 µM); conditions: main component drawn
Method in brief: as §1

UMC-11
relative viability (Etoposide + Alpelisib; first compound 0.01 µM): 0.943 | relative viability (Etoposide + Alpelisib; first compound 0.03162 µM): 1.11 | relative viability (Etoposide + Alpelisib; first compound 0.3162 µM): 0.352 | relative viability (Etoposide + Alpelisib; first compound 1 µM): 0.222 | relative viability (Etoposide + Decitabine; first compound 0.01 µM): 0.462 | relative viability (Etoposide + Decitabine; first compound 0.03162 µM): 0.621 | relative viability (Etoposide + Decitabine; first compound 0.1 µM): 0.355 | relative viability (Etoposide + Decitabine; first compound 0.3162 µM): 0.356 | relative viability (Etoposide + Decitabine; first compound 1 µM): 0.319 | relative viability (Etoposide + Luminespib; first compound 0.01 µM): 1 | relative viability (Etoposide + Luminespib; first compound 0.03162 µM): 1.09 | relative viability (Etoposide + Luminespib; first compound 0.1 µM): 0.783 | relative viability (Etoposide + Luminespib; first compound 0.3162 µM): 0.566 | relative viability (Etoposide + Luminespib; first compound 1 µM): 0.279 | relative viability (Bleomycin + Dasatinib; first compound 0.01 µM): 0.448 | relative viability (Bleomycin + Dasatinib; first compound 0.03162 µM): 0.511 | relative viability (Bleomycin + Dasatinib; first compound 0.1 µM): 0.495 | relative viability (Bleomycin + Dasatinib; first compound 0.3162 µM): 0.385 | relative viability (Bleomycin + Dasatinib; first compound 1 µM): 0.328
